{
  "source": "patent US20230151432A1",
  "about": "“KIF18A INHIBITORS FOR TREATMENT OF NEOPLASTIC DISEASES” (AMGEN INC., priority 2020, published 2023)",
  "key": {"[1]": {"molecular_target": "T1, Recombinant human KIF18A (1-467 His-tagged) protein (Homo sapiens, UniProt Q8NI77)", "T1 construct": "Recombinant human KIF18A (1-467 His-tagged) protein; His; made in house", "T1 sequence (Q8NI77 1-467)": "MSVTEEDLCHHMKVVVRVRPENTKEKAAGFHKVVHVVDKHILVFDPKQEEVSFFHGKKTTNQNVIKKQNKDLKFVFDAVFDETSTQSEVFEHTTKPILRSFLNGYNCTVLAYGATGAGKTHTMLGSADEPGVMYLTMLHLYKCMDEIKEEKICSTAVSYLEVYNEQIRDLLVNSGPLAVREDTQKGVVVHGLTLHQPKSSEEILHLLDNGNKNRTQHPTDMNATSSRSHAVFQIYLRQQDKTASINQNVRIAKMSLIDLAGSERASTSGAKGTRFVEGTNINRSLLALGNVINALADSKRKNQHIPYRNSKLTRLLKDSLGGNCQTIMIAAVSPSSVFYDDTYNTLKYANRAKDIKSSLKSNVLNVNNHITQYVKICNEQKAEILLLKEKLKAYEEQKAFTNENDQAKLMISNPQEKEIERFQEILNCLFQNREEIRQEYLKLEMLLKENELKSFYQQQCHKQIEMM", "T1 sequence (P02550 whole entry partner)": "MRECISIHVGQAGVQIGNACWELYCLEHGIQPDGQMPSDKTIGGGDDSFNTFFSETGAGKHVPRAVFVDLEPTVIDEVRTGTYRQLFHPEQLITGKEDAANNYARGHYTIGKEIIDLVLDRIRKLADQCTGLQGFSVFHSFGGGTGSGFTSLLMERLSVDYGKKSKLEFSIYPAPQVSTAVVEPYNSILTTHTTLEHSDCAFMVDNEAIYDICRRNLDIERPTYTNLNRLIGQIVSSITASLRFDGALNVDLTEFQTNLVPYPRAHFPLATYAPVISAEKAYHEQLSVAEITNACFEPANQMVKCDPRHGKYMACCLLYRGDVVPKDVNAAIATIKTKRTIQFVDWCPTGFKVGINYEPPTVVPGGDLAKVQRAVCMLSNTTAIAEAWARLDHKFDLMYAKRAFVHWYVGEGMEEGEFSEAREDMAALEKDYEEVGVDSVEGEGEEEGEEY", "T1 sequence (P02554 whole entry partner)": "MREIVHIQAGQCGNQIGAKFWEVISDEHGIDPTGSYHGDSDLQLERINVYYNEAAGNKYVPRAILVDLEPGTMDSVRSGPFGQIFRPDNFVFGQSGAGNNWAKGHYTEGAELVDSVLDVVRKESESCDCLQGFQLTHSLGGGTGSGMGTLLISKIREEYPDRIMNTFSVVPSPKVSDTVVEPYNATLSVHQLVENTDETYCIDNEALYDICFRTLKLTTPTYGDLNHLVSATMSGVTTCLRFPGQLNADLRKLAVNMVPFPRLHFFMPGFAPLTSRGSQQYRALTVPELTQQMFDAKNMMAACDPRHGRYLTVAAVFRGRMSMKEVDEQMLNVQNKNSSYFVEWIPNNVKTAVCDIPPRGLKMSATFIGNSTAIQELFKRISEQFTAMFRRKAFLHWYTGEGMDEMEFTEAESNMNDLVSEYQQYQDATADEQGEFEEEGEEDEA", "assay": "KIF18A Enzyme Assay (microtubule-stimulated ATPase activity, ADP-Glo)", "format": "biochemical", "conditions": "30 nM KIF18A, 75 μM ATP", "experimental": "KIF18A Enzyme Assay: Microtubule-stimulated ATPase activity assay was used to measure KIF18A enzyme activity after treatment with compound. Compounds were 2-fold serially diluted in DMSO (Sigma Inc) over 22-point concentration range. […] The assay measures ADP formed from the ATPase reaction.\nConcentration-response curve-fitting and IC50 determination was performed using Genedata Screener Software (Standard 15.0.1, Genedata Inc) with a four-parameter logistic regression fit model."}, "[2]": {"tested_on": "OVCAR-8 NCI/ADR-RES cells", "assay": "Nuclear count assay in multidrug resistant cells, with or without P-gp inhibitor", "format": "cell-based, human", "conditions": "4-day NCA; for EC50: Homo sapiens, 96 h, read-out: EC50 (Count POC)", "experimental": "Compound was added to the cells with a final volume of 200 μL in complete media containing 0.5% DMSO.\nThe plates were sealed and incubated for 1 hour at room temperature in the dark. Cells were stored at 4° C. in the dark until data acquisition. […] The Total Valid Object Count was represented as a Count POC (Percentage of DMSO Control) using the following formula:\nBriefly, OVCAR-8 cells were seeded in duplicate in a Corning 96-well Flat Clear Bottom Black Polystyrene plates (Corning, N.Y.) in 100 μL of appropriate complete media at the appropriate density and grown for 24 hours. […] After 4 days (96 hours) of treatment, the cells were fixed by removing 100 μL of complete media from each well and replacing it with 100 μL of 2×formaldehyde (final 4%) and incubating the plates for 15 minutes at room temperature. […] The plates were sealed and incubated for 1 hour at room temperature in the dark. Cells were stored at 4° C. in the dark until data acquisition. […] The Total Valid Object Count was represented as a Count POC (Percentage of DMSO Control) using the following formula:\nCount POC=(Total Valid Object Count in treated well)[…](Total Valid Object Count in DMSO treated wells)×100\nCompound concentration and Count POC values were plotted using GraphPad Prism software (V7.0.4) and curve-fitting was performed with 4-parameter equation (variable slope). The concentration-response curves and standard deviation represent two independent experiments run in duplicate."}, "[3]": {"tested_on": "human bone marrow mononuclear cells (HBMNC)", "assay": "BrdU cell cycle analysis and live cell count in normal cells", "format": "cell-based", "experimental": "(§1) The effect KIF18A inhibitor treatment has on proliferation of normal somatic cells (e.g., not neoplastic cells) was tested by assaying proliferation of human bone marrow mononuclear cells (HBMNCs), primary human foreskin fibroblast cells (hFSF) and human mammary epithelial cells via a 5-bromo-2′-deoxyuridine (BrdU) incorporation assay in which BrdU, an analog of the nucleoside thymidine, is used to identify proliferating cells (Payton et. al., Molecular Cancer Therapeutics, 17(12):2575-85 (2018)). Cells were analyzed on BD LSRFortessa flow cytometer using BD FACSDiva software (BD Biosciences), and post-acquisition data analysis was performed using FSC-Express software (De Novo). The percentage of BrdU positive gated events on the stacked DNA content histograms were reported.\nTo further examine the effects of KIF18A inhibitor treatment on HBMNC, two normal donors were assessed using the BrdU coupled cell cycle assay and cell count assay (96 hours) was. […] In particular, the amount of BrdU-stained proliferating cells treated with Ispinesib, paclitaxel, or a CDK 4/6 inhibitor (palbociclib) was far less than the amount of vehicle control-treated BrdU-stained cells. […] KIF18A inhibitor treatment was also analyzed for impact on live cell count. After 96 hours, live cells were counted by Vi-CELL XR Cell Viability Analyzer (Beckman Coulter).\nTo investigate whether KIF18A inhibitors could circumvent this normal cell toxicity barrier, we examined the effects of Compounds C9 and C11 on a panel of cycling normal somatic cell types. First, we treated human bone marrow mononuclear cells (HBMNC) from two normal donors with DMSO, Compound C9 and C11 at 1 μM, ispinesib at 0.05 μM, paclitaxel at 0.05 μM, or palbociclib at 1 μM for 48 h (cell cycle) or 96 h (cell growth).\nBrdU and cell cycle analysis. Human bone marrow mononuclear cells (HBMNCs) from two normal donors (#37612, #37534) were cultured for 8 days in defined media as previously described (Payton et al 2018). HBMNCs were seeded in 24-well plate at 1.2×10^6 cells per well in duplicate plates. Cells were treated with DMSO, Compound C9 (1 μM), Compound C11 (1 μM), ispinesib (0.05 μM), paclitaxel ([…]), or palbociclib (1 μM). Cells were collected at 48 h (cell cycle) and 96 h (cell growth). The first set of plates were pulsed with BrdU for 2 h and processing for BrdU cell cycle analysis as previously described (Payton et al 2018). Cells were analyzed on BD LSRFortessa flow cytometer running BD FACSDiva software and post-acquisition data analysis was performed using FSC-Express software. Data was reported for the percentage of BrdU and subG1 gated populations. The second set of plates were collected, and cells counted using Vi-CELL XR Cell Viability Analyzer (Beckman Coulter)."}, "[4]": {"tested_on": "human foreskin fibroblast (hFSF) cells", "assay": "BrdU incorporation assay in normal cells", "format": "cell-based", "conditions": "48 hours", "experimental": "as §1"}, "[5]": {"tested_on": "human mammary epithelial cells (HMEC)", "assay": "BrdU incorporation assay in normal cells", "format": "cell-based", "conditions": "48 hours", "experimental": "as §1"}},
  "note": "Like-named read-outs stand apart in the source and are kept apart here.",
  "data": [
    {"smiles": "Cc1cc(NC(=O)c2ccc([S@](=N)(=O)C3CC3)cc2N2CCC3(CC2)CC3)nc(N2CCC(F)(F)CC2)n1", "note": "(single isomer, unassigned) [Compound C1, 2-(6-Azaspiro[2.5]octan-6-yl)-4-(R-cyclopropylsulfonimidoyl)-N-(2-(4,4-difluoro-1-piperidinyl)-6-methyl-4-pyrimidinyl)benzamide]", "values": [
      {"measurement": "IC50", "setting": "[1]", "result": 64, "unit": "nM"}
    ]},
    {"smiles": "Cc1cc(NC(=O)c2ccc(S(=N)(=O)C3CC3)cc2N2CCC3(CC2)CC3)nc(N2CCC(F)(F)CC2)n1", "note": "(single isomer, unassigned) [Compound C2, 2-(6-azaspiro[2.5]octan-6-yl)-4-(S-cyclopropylsulfonimidoyl)-N-(2-(4,4-difluoro-1-piperidinyl)-6-methyl-4-pyrimidinyl)benzamide]", "values": [
      {"measurement": "IC50", "setting": "[1]", "result": 57, "unit": "nM"}
    ]},
    {"smiles": "Cc1cc(NC(=O)c2ccc(NS(=O)(=O)[C@H](C)CO)cc2N2CCC3(CC2)CC3)nc(N2CCC(F)(F)CC2)n1", "note": "(single isomer, unassigned) [Compound C5]", "values": [
      {"measurement": "IC50", "setting": "[1]", "result": 62, "unit": "nM"}
    ]},
    {"smiles": "Cc1cc(NC(=O)c2ccc(NS(=O)(=O)[C@@H](C)CO)cc2N2CCC3(CC2)CC3)nc(N2CCC(F)(F)CC2)n1", "note": "(single isomer, unassigned) [Compound C6]", "values": [
      {"measurement": "IC50", "setting": "[1]", "result": 70, "unit": "nM"}
    ]},
    {"smiles": "CC(C)(C)NS(=O)(=O)c1cccc(NC(=O)c2ccc(S(=O)(=O)C3(C)COC3)cc2N2CCC3(CC2)CC3)c1", "note": "[Compound C8, N-(3-(N-(tert-Butyl)sulfamoyl)phenyl)-4-((3-methyloxetan-3-yl)sulfonyl)-2-(6-azaspiro[2.5]octan-6-yl)benzamide]", "values": [
      {"measurement": "IC50", "setting": "[1]", "result": 61, "unit": "nM"}
    ]},
    {"smiles": "CC(C)(C)NS(=O)(=O)c1cccc(NC(=O)c2ccc(NC(C)(C)CO)nc2N2CCC3(CC2)CC3)c1", "note": "[Compound C10, N-(3-(N-(tert-Butyl)sulfamoyl)phenyl)-6-((1-hydroxy-2-methylpropan-2-yl)amino)-2-(6-azaspiro[2.5]octan-6-yl)nicotinamide]", "values": [
      {"measurement": "IC50", "setting": "[1]", "result": 70, "unit": "nM"}
    ]},
    {"smiles": "CC(=O)O[C@H]1C(=O)[C@@]2(C)[C@H]([C@H](OC(=O)c3ccccc3)[C@]3(O)C[C@H](OC(=O)[C@H](O)[C@@H](NC(=O)c4ccccc4)c4ccccc4)C(C)=C1C3(C)C)[C@]1(OC(C)=O)CO[C@@H]1C[C@@H]2O", "note": "[Paclitaxel]", "values": [
      {"measurement": "fold change in potency in the presence vs in the absence of the P-gp inhibitor", "setting": "[2]; GF120918 1 μM", "result": "greater than 500 fold"},
      {"measurement": "EC50", "setting": "[2]; absence of the P-gp inhibitor", "result": "> 1000", "unit": "nM"},
      {"measurement": "EC50", "setting": "[2]; presence of P-gp inhibitor GF120918 (1 μM)", "result": 1.7, "unit": "nM"},
      {"measurement": "live cell count relative to vehicle control", "setting": "[3]", "result": "lower cell count"}
    ]},
    {"smiles": "CC(=O)c1c(C)c2cnc(Nc3ccc(N4CCNCC4)cn3)nc2n(C2CCCC2)c1=O", "note": "[Palbociclib]", "values": [
      {"measurement": "BrdU incorporation relative to DMSO treated cells", "setting": "[4]", "result": "decrease in BrdU incorporation"},
      {"measurement": "BrdU incorporation relative to DMSO treated cells", "setting": "[5]", "result": "decrease in BrdU incorporation"},
      {"measurement": "live cell count relative to vehicle control", "setting": "[3]", "result": "lower cell count"}
    ]}
  ]
}
